Where “and” joins values, the source holds several entries; their conditions need not be identical. Equal values may be shown once.
Legend:
NS5BΔ21-His polymerase = molecular target: T1, NS5BΔ21-His polymerase (Hepatitis C virus genotype 1b, UniProt P26663); assay: Fluorescence anisotropy titration of probe with NS5BΔ21-His; format: binding, HCV; conditions: Kd of probe for NS5BΔ21-His
T1 construct: a variant that lacks the C-terminal 21 amino acids normally found on the mature NS5B; hexa-histidine (C); made in house; host or cells: E. coli JM109 (DE3), pET vector
Description: Titration of the probe with the enzyme was performed as follows:
(§1) The fluorescein labeled probe was diluted to the desired concentration in 20 mM Tris-HCl pH 7.5, 1 mM EDTA, 5 mM MgCl2, 1 mM DTT and 10% DMSO. The NS5BΔ21-His protein was serially diluted in 25 mM Tris-HCl pH 7.5, 300 mM NaCl, 5 mM DTT, 1 mM EDTA, 30% glycerol and 0.1% IGEPAL. Total volume of the reaction was 500 μL and final assay buffer was 20 mM Tris-HCl pH 7.5, 1 mM EDTA, 5 mM MgCl2, 1 mM DTT, 30 mM NaCl, 3% glycerol, 0.01% IGEPAL and 5% DMSO. Anisotropy measurements were performed on a SLM Aminco 8100 Spectrofluorometer equipped with a 450-W xenon arc lamp and a T-optics configuration. Excitation wavelength was at 493 nm and emission was monitored at 530 nm. In each anisotropy measurement, the parallel and perpendicular intensities of the background buffer solution was subtracted from the measured values of the sample and the anisotropy was calculated. Data were processed on SAS program (SAS Institute Inc., NC, USA) for a non linear regression to obtain the direct binding equilibrium constant and other parameters, and the plot of the regressed fit over the experimental data. An example of a titration curve obtained with probe (i) is shown on FIG. 1.
The usefulness of this polarization assay is evident when binding of compounds has to be studied under different conditions. For example, binding constants of the probes have been determined at different concentrations of salts and pH. FIGS. 5 to 8 show the binding curves of probe (i) in final NaCl concentrations ranging from 30 mM to 200 mM. […] All other reagents in the assay were as described in the standard protocol (Example 3). […] Studies at pH 6.5 were also performed to determine the Kd of the probe (i) at lower pH. For these assays, 20 mM Phosphate buffer pH 6.5 was used in place of Tris; all other reagents of the assay were as described in the 96-well Polarization assay (Example 4). […] Having established these Kd values under different experimental conditions, it is then trivial to determine what concentrations of probe and enzyme should be used to obtain 70% of binding of the probe with the equilibrium equation. Once these values are obtained, compounds of interest can easily be studied under the new conditions to determine their Kd values.

His-NS5BΔ21 polymerase = molecular target: T2, His-NS5BΔ21 polymerase (Hepatitis C virus genotype 1b, UniProt P26663); assay: Fluorescence anisotropy/polarization titration of probe with His-NS5BΔ21; format: binding, HCV; conditions: Kd of probe for N-terminally tagged His-NS5BΔ21, standard conditions
T2 construct: a variant that lacks the C-terminal 21 amino acids normally found on the mature NS5B; hexa-histidine (N); made in house; host or cells: E. coli JM109 (DE3), pET vector
Description: as §1, with “Data were processed on SAS program (SAS Institute Inc., NC, USA) for a non linear regression to obtain the direct binding equilibrium constant and other parameters, and the plot of the regressed fit over the experimental data. An example of a titration curve obtained with probe (i) is shown on FIG. 1.” left out
To obtain Kd values of different compounds competing with these probes (test compounds), this assay was transformed to a more amenable format and a binding assay was made suitable for a 96-well microplate reader. […] The NS5BΔ21-His concentration in the assay was calculated to obtain 70% of binding of the probe; these conditions allowed for the displacement of the probe by test compounds. […]
The Fluorescence polarization assay was also used with other constructs of our HCV polymerase enzyme. […]

GBV-BΔ23-His polymerase = molecular target: T3, GBV-BΔ23-His polymerase (Hepatitis GB virus B, UniProt Q69422); assay: Fluorescence anisotropy titration of probe with GBV-B polymerase; format: binding
T3 construct: The GBV-B polymerase enzyme (termed GBV-BΔ23-His; 3); His tag (C); made in house; host or cells: E. coli JM109 (DE3), pET vector
Description: as §1, with “An example of a titration curve obtained with probe (i) is shown on FIG. 1.” left out
(§2) The GBV-B and the HCV 1a polymerases were used to titrate probe ii, using the protocol described in Example 3. […] Kd values for a series of compounds were determined with these two HCV (genotypes 1a and 1b) polymerases, using the assay format described in Example 4.

[1] = molecular target: T4, His-NS5BΔ21(H77c, HCV genotype 1a) polymerase (Hepatitis C virus genotype 1a, UniProt P27958); assay: Fluorescence anisotropy titration of probe with HCV genotype 1a polymerase; format: binding; conditions: Kd of probe for HCV genotype 1a polymerase, standard conditions of Example 3
T4 construct: The HCV genotype 1a NS5B polymerase [termed His-NS5BΔ21 (H77c, 1a); 4]; His tag (N); made in house; host or cells: E. coli JM109 (DE3), pET vector
Description: as §1, with “data.” for “data. An example of a titration curve obtained with probe (i) is shown on FIG. 1.”
as §2

[2] = standard conditions of Example 3 (Tris-HCl pH 7.5, 30 mM NaCl)

SMILES	Kd (NS5BΔ21-His polymerase; 20 mM Phosphate buffer pH 6.5 in place of Tris) [µM]	Kd (NS5BΔ21-His polymerase; 30 mM NaCl)	Kd (NS5BΔ21-His polymerase; 100 mM NaCl) [µM]	Kd (NS5BΔ21-His polymerase; 150 mM NaCl) [µM]	Kd (NS5BΔ21-His polymerase; 200 mM NaCl) [µM]	Kd (NS5BΔ21-His polymerase; [2])	Kd (His-NS5BΔ21 polymerase)	Kd (GBV-BΔ23-His polymerase; Kd of probe for GBV-BΔ23-His polymerase, estimated value with an incomplete curve)	Kd with GBV-B polymerase relative to HCV polymerases (GBV-BΔ23-His polymerase; fold higher Kd, specificity)	Kd [1]
O=C(O)COc1ccc2[nH]cc(C[C@H](NC(=O)c3ccc4c(c3)nc(-c3ccc(C(=O)NCCNC(=S)Nc5ccc(-c6c7ccc(=O)cc-7oc7cc(O)ccc67)c(C(=O)O)c5)cc3)n4C3CCCCC3)C(=O)O)c2c1 [probe (i), 5-[3-(2-{[1-(4-{5-[(S)-1-Carboxy-2-(5-carboxymethoxy-1-H-indol-3-yl)-ethylcarbamoyl]-1-cyclohexyl-1H-benzimidazol-2-yl}-phenyl)-methanoyl]-amino}-ethyl)-thioureido]-2-(6-hydroxy-3-oxo-3H-xanthen-9-yl)-benzoic acid]	0.033	0.015 µM and 0.0153 µM	0.039	0.078	0.122	0.015 µM and 0.0126 µM	0.018 µM and 0.0181 µM	–	–	–
O=C(O)COc1ccc2[nH]cc(C[C@H](NC(=O)c3ccc4c(c3)nc(-c3ccc(OCC(=O)NCCNC(=S)Nc5ccc(-c6c7ccc(=O)cc-7oc7cc(O)ccc67)c(C(=O)O)c5)cc3)n4C3CCCCC3)C(=O)O)c2c1 [probe (ii), 5-(3-{2-[2-(4-{5-[(S)-1-Carboxy-2-(5-carboxymethoxy-1-H-indol-3-yl)-ethylcarbamoyl]-1-cyclohexyl-1H-benzimidazol-2-yl}-phenoxy)-ethanoylamino]-ethyl}-thioureido)-2-(6-hydroxy-3-oxo-3H-xanthen-9-yl)-benzoic acid]	–	–	–	–	–	0.006 µM	–	1.8 µM and 1.79 µM	at least 100 fold	0.018 µM and 0.0182 µM

— US7294457B2, “Direct binding assay for identifying inhibitors of HCV polymerase” (priority 2001, dated 2007)
